Source: ChEMBL document CHEMBL5665443, “Enzyme Inhibitor Single Concentration assay results for EUbOPEN Chemogenomics Library” (2024)

How the values were obtained:
[1] = biological target: DNA-3-methyladenine glycosylase (Homo sapiens) (UniProt P29372); conditions: Compound Concentration 10.0 uM, Hit No;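 also: enzyme assay where MPG cuts a quenched duplex DNA oligonucleotide probe, paired with APE1 for strand incision and turnover, read as fluorescence at 594 nm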
Description: Inhibition of MPG by quantifying inhibition of MPG-mediated cleavage and dissociation of quenched duplex DNA oligonucleotides, measured as fluorescence at 594 nm. To generate a functional strand incision and increase turn-over this assay is coupled to APE1.

[2] = biological target: T1, Endonuclease III-like protein 1 (Homo sapiens) (UniProt P78549); conditions: Hit No;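 also: enzyme assay tracking NTHL1 cutting and release of a quenched double-stranded DNA oligo substrate, read as fluorescence at 594 nm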
T1 sequence (whole entry): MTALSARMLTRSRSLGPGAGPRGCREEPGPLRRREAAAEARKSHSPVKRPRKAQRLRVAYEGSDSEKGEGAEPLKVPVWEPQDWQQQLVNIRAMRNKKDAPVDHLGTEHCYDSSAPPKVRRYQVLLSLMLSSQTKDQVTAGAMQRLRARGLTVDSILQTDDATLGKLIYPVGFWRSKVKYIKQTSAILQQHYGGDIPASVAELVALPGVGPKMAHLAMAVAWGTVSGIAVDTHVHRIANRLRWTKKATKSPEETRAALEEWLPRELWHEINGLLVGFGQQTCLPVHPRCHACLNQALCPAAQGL
Description: Inhibition of NTHL1 by quantifying inhibition of NTHL1-mediated cleavage and dissociation of quenched duplex DNA oligonucleotides, measured as fluorescence at 594 nm.

[3] = biological target: N-glycosylase/DNA lyase (Homo sapiens) (UniProt O15527); conditions: Hit No;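 also: OGG1 cleavage of a quenched duplex DNA oligonucleotide, coupled to APE1 for strand incision, read as fluorescence at 594 nm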
N-glycosylase/DNA lyase (Homo sapiens), sequence (O15527 whole entry): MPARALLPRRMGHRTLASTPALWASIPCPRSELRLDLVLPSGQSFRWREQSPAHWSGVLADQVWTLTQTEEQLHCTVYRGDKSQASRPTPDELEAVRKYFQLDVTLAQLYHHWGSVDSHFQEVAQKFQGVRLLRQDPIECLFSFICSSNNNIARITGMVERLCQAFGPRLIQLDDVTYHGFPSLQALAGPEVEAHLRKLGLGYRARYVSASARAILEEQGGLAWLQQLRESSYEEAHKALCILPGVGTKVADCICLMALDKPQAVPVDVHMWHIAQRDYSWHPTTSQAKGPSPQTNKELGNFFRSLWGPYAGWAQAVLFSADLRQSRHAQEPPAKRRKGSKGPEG
Description: Inhibition of OGG1 by quantifying inhibition of OGG1-mediated cleavage and dissociation of quenched duplex DNA oligonucleotides, measured as fluorescence at 594 nm. To generate a functional strand incision and increase turn-over this assay is coupled to APE1.

[4] = biological target: Endonuclease 8-like 1 (Homo sapiens) (UniProt Q96FI4); conditions: Hit No;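 also: fluorescence at 594 nm from quenched duplex DNA oligonucleotides released by NEIL1 cleavage and strand separation, reported as reduction of this enzyme activity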
Endonuclease 8-like 1 (Homo sapiens), sequence (Q96FI4 whole entry): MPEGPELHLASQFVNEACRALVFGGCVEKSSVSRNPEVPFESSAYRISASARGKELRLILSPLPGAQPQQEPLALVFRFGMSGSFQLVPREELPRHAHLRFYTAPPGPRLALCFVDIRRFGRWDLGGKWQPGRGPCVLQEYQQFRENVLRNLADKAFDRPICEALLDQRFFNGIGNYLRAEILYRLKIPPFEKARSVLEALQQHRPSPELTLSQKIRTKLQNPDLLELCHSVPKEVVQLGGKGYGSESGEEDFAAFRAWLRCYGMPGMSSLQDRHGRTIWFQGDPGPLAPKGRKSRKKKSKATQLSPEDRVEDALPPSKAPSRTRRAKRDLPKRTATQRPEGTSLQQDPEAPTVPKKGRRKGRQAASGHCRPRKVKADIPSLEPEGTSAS
Description: Inhibition of NEIL1 by quantifying inhibition of NEIL1-mediated cleavage and dissociation of quenched duplex DNA oligonucleotides, measured as fluorescence at 594 nm.

[5] = biological target: T2, Single-strand selective monofunctional uracil DNA glycosylase (Homo sapiens) (UniProt Q53HV7); conditions: Hit No;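 also: enzymatic SMUG1 assay coupled with APE1, reading fluorescence at 594 nm released when a quenched double-stranded DNA oligonucleotide substrate is cleaved and separated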
T2 sequence (whole entry): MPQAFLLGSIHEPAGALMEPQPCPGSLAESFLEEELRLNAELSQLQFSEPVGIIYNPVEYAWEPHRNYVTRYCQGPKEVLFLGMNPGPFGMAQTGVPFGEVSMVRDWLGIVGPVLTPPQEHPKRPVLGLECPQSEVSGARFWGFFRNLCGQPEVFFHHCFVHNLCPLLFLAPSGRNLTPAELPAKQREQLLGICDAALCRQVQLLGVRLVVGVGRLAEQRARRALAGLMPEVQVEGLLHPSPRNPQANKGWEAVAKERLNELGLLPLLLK
Description: Inhibition of SMUG1 by quantifying inhibition of SMUG1-mediated cleavage and dissociation of quenched duplex DNA oligonucleotides, measured as fluorescence at 594 nm. To generate a functional strand incision and increase turn-over this assay is coupled to APE1.

[6] = biological target: T3, Adenine DNA glycosylase (Homo sapiens) (UniProt Q9UIF7); conditions: Hit No;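 also: human MUTYH activity read as 594 nm fluorescence from cleavage and release of a quenched DNA duplex, coupled with APE1 for strand incision, lower signal meaning inhibition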
T3 sequence (whole entry): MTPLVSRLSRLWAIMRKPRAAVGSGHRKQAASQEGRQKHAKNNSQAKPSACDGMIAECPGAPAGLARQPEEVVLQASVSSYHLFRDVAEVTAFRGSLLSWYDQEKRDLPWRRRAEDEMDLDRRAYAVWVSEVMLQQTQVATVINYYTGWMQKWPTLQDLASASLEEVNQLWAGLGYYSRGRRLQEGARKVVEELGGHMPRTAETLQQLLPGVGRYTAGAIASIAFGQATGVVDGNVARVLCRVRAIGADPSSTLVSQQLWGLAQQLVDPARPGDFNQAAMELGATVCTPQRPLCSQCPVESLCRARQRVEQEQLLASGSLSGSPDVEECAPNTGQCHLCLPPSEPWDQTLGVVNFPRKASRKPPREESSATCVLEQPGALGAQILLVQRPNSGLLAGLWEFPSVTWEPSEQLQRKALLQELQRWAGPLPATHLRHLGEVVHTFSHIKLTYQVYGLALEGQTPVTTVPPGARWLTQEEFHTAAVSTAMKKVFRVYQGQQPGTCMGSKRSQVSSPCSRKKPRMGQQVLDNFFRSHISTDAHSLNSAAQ
Description: Inhibition of MUTYH by quantifying inhibition of MUTYH-mediated cleavage and dissociation of quenched duplex DNA oligonucleotides, measured as fluorescence at 594 nm. To generate a functional strand incision and increase turn-over this assay is coupled to APE1.

[7] = biological target: Uracil-DNA glycosylase (Homo sapiens) (UniProt P13051);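 also: UNG excision on a quenched double-stranded DNA oligo probe, with APE1 added for strand incision and turnover, read as fluorescence at 594 nm as strands separate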
Uracil-DNA glycosylase (Homo sapiens), sequence (P13051 whole entry, the tested form may be a part): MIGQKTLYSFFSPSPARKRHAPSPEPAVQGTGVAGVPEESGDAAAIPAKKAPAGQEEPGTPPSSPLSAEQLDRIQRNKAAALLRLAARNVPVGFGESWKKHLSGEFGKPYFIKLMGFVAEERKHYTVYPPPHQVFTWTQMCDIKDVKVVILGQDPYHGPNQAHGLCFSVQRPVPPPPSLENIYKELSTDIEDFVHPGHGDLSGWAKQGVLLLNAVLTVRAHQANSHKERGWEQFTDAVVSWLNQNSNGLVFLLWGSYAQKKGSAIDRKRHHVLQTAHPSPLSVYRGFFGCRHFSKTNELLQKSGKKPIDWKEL
Description: Inhibition of UNG by quantifying inhibition of UNG-mediated cleavage and dissociation of quenched duplex DNA oligonucleotides, measured as fluorescence at 594 nm. To generate a functional strand incision and increase turn-over this assay is coupled to APE1.

[8] = biological target: Methyl-CpG-binding domain protein 4 (Homo sapiens) (UniProt O95243);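 also: MBD4 activity read as fluorescence at 594 nm from cleavage and release of a quenched duplex DNA oligonucleotide, with APE1 coupled to incise the strand and raise turnover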
Methyl-CpG-binding domain protein 4 (Homo sapiens), sequence (O95243 whole entry, the tested form may be a part): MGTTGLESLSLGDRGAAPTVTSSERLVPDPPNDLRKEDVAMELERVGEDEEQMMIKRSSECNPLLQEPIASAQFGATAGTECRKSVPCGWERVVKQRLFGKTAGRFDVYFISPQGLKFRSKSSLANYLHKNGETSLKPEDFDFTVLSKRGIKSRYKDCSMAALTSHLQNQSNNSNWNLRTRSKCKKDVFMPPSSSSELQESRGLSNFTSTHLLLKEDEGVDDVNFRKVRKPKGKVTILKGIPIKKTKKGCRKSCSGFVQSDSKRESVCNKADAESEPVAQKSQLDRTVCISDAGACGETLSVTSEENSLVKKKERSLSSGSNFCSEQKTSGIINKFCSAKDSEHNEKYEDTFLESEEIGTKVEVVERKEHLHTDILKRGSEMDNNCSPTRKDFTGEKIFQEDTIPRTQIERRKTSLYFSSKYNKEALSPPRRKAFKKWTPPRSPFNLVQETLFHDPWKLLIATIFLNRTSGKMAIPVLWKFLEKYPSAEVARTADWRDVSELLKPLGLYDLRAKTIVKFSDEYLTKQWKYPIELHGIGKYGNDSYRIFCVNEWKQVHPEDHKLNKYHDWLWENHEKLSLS
Description: Inhibition of MBD4 by quantifying inhibition of MBD4-mediated cleavage and dissociation of quenched duplex DNA oligonucleotides, measured as fluorescence at 594 nm. To generate a functional strand incision and increase turn-over this assay is coupled to APE1.

[9] = biological target: G/T mismatch-specific thymine DNA glycosylase (Homo sapiens) (UniProt Q13569); conditions: Hit No;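 also: human TDG cleavage of quenched duplex DNA oligonucleotides coupled to APE1, strand release read as fluorescence at 594 nm, inhibition of TDG activity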
G/T mismatch-specific thymine DNA glycosylase (Homo sapiens), sequence (Q13569 whole entry): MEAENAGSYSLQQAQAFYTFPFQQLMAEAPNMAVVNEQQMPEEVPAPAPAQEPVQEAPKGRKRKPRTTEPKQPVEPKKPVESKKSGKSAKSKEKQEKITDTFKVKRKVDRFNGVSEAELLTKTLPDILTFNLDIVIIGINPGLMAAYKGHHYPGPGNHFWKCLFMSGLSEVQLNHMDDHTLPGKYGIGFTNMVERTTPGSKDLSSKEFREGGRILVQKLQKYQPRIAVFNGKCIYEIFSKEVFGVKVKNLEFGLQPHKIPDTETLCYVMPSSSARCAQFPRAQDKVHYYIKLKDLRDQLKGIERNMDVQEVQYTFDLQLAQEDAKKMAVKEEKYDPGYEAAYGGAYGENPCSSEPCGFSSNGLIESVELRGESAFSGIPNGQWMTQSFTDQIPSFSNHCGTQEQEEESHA
Description: Inhibition of TDG by quantifying inhibition of TDG-mediated cleavage and dissociation of quenched duplex DNA oligonucleotides, measured as fluorescence at 594 nm. To generate a functional strand incision and increase turn-over this assay is coupled to APE1.

[10] = biological target: T4, Endonuclease 8-like 2 (Homo sapiens) (UniProt Q969S2); conditions: Compound Concentration 10.0 uM, Hit No;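 also: fluorescence at 594 nm reports NEIL2 cutting and release of a quenched double-stranded DNA oligo substrate, reduced signal read as inhibition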
T4 sequence (whole entry): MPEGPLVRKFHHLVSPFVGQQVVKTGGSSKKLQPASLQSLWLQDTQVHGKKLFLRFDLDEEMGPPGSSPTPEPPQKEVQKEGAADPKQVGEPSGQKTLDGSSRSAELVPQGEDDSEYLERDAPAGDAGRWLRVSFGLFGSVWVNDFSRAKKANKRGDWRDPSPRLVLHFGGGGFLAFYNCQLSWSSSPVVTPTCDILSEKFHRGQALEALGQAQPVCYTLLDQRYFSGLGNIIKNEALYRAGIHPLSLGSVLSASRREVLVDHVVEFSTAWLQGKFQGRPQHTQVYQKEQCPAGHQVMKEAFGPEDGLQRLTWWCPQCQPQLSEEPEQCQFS
Description: Inhibition of NEIL2 by quantifying inhibition of NEIL2-mediated cleavage and dissociation of quenched duplex DNA oligonucleotides, measured as fluorescence at 594 nm.

[11] = Compound Concentration 10.0 uM, Hit No
[12] = Compound Concentration 10.0 uM, Hit Yes
[13] = Compound Concentration 1.0 uM, Hit No

DNA-3-methyladenine glycosylase (Homo sapiens), sequence (P29372 whole entry): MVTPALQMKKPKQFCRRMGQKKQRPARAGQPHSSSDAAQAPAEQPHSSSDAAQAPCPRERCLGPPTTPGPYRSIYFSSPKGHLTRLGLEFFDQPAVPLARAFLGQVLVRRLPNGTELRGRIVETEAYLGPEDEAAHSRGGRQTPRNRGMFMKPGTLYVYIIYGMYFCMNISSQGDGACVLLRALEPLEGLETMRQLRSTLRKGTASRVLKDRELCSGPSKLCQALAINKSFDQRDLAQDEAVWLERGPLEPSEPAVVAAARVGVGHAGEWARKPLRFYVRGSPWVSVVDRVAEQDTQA

Row | Compound | inhibition [1] [%] | inhibition ([2]; Compound Concentration 10.0 uM) [%] | inhibition ([3]; Compound Concentration 10.0 uM) [%] | inhibition ([4]; Compound Concentration 10.0 uM) [%] | inhibition ([5]; Compound Concentration 10.0 uM) [%] | inhibition ([6]; Compound Concentration 10.0 uM) [%] | inhibition [7, 11] [%] | inhibition [8, 11] [%] | inhibition ([9]; Compound Concentration 10.0 uM) [%] | inhibition [10] [%] | inhibition [8, 12] [%] | inhibition [7, 12] [%] | inhibition ([2]; Compound Concentration 1.0 uM) [%] | inhibition ([3]; Compound Concentration 1.0 uM) [%] | inhibition ([4]; Compound Concentration 1.0 uM) [%] | inhibition ([5]; Compound Concentration 1.0 uM) [%] | inhibition ([6]; Compound Concentration 1.0 uM) [%] | inhibition [7, 13] [%] | inhibition [8, 13] [%] | inhibition ([9]; Compound Concentration 1.0 uM) [%]
1 | NCCc1c[nH]c2ccc(C(N)=O)cc12 | -1.86 | -7.6 | -3.21 | 7.95 | 0.209 | 4.88 | -6.78 | -4.67 | 8.45 | -5.97 | – | – | – | – | – | – | – | – | – | –
2 | Cc1cc(OCCCS(C)(=O)=O)cc(C)c1-c1cccc(COc2ccc3c(c2)OC[C@H]3CC(=O)O)c1 | 12.1 | 10.7 | 18.3 | -4.36 | 12.3 | 49.2 | -3.46 | 46.9 | 44.4 | 8.25 | – | – | – | – | – | – | – | – | – | –
3 | COc1ccc2cc(S(=O)(=O)N[C@H](CC(=O)N[C@H](Cc3ccc(CN4[C@H](C)CCC[C@@H]4C)cc3)C(=O)N(C)C(C)C)c3ccc4c(c3)OCO4)ccc2c1 | 30 | 7.79 | -6.96 | 12.6 | -5.31 | -1.26 | 3.72 | 19.6 | 44.9 | 10.8 | – | – | – | – | – | – | – | – | – | –
4 | O=C1C[C@@H]2OCC=C3CN4CC[C@]56c7ccccc7N1[C@H]5[C@H]2[C@H]3C[C@H]46 | -1.64 | 10.5 | -7.16 | 0.602 | -0.692 | 38.1 | -3.11 | 11.5 | 11.6 | -1.88 | – | – | – | – | – | – | – | – | – | –
5 | Cn1nc(C(=O)NCc2ccc(C(=O)O)cc2)cc1-c1ccc2[nH]ccc2c1 | 115 | -3.92 | 0.23 | 1.38 | 8.36 | -5.73 | 0.276 | 70.9 | 56.9 | -4.83 | – | – | – | – | – | – | – | – | – | –
6 | CCNC(=O)NS(=O)(=O)c1sc(CC(C)C)cc1-c1ccc(Cn2c(-c3ccccc3)nc(OC)c2C=O)cc1 | 51.7 | 8.82 | 21.2 | 12.3 | 36.2 | 90.4 | 6.28 | – | 64.7 | 7.29 | 78.6 | – | – | – | – | – | – | – | – | –
7 | CCn1cc(-c2ccnc3[nH]c(-c4cccc(CN(C)C)c4)cc23)c(-c2ccc(NC(=O)N(C)C)cc2)n1 | 62.9 | 2.18 | 14.9 | -6.47 | 24.3 | 78.6 | – | 22.5 | 49 | 23.1 | – | 25 | – | – | – | – | – | – | – | –
8 | COCCOCCn1nc2c(c1C)-c1c(Cl)ccc3c1c(C)c(C(=O)O)n3CCCOc1cc(cc3c(F)c(Cl)ccc13)CCc1cc(nn1C)CSC2 | 52.2 | -0.959 | 28.8 | -6.35 | 17.3 | 36 | 9.88 | 77.7 | 59.9 | 5.63 | – | – | – | – | – | – | – | – | – | –
9 | NC(=O)NN=Cc1ccc(Oc2ccc(F)cc2)cc1 | 2.76 | 0.568 | -9.24 | 9.49 | -4.59 | 8.22 | -5.79 | -2.63 | 11.3 | -3.41 | – | – | – | – | – | – | – | – | – | –
10 | O=C(O)CCc1ccc(NCc2cccc(Oc3ccccc3)c2)cc1 | 6.47 | -4.39 | -0.368 | -7.7 | -4.08 | 13.9 | -1.29 | 13.6 | 20 | -9.01 | – | – | – | – | – | – | – | – | – | –
11 | COC(=O)c1cc2c(cn1)[nH]c1ccccc12 | 11.4 | 2.22 | 0.163 | 5.05 | 2.02 | 41.5 | -4.88 | 8.08 | 11 | 22.6 | – | – | – | – | – | – | – | – | – | –
12 | CCCn1c(=O)c2nc(C34CC5CC(CC3C5)C4)[nH]c2n(CCC)c1=O | -7.5 | -8.34 | -1.3 | 5.88 | 5 | 6.8 | -9.84 | 16.5 | 14.1 | 12.2 | – | – | – | – | – | – | – | – | – | –
13 | Cc1cccc([C@H]2CC[C@@H](N3CCN(c4cccnc4)CC3)CC2)c1 (mixture of isomers) | 39 | -0.258 | 4.72 | 1.34 | 15.5 | 35.8 | 1.66 | 56.1 | 47.1 | 9.59 | – | – | – | – | – | – | – | – | – | –
14 | O=C(Nc1ccccc1Br)N[C@@H]1CCN(c2ccc(C(F)(F)F)cn2)C1 | 35.3 | 6.35 | 3.57 | -1.77 | 15 | 26.9 | 2.31 | 41.6 | 27.5 | 2.71 | – | – | – | – | – | – | – | – | – | –
15 | Cc1ccc2c(c1CCC(=O)O)CC[C@@H](NS(=O)(=O)c1ccc(Cl)cc1)C2 | 11.8 | 15.1 | 10 | 5.13 | 4.86 | 33.4 | -7.64 | 16.2 | 18 | 1.01 | – | – | – | – | – | – | – | – | – | –
16 | N#Cc1c(O)nc(SCc2cccc(F)c2F)nc1C1CC1 | 5.35 | 17.3 | 21.3 | -3.76 | 14.3 | 43.4 | -3.9 | 31 | 26.8 | 6.5 | – | – | – | – | – | – | – | – | – | –
17 | CC1(C)CN2C(CS/C(=N\C3CCCCC3)NC3CCCCC3)=CSC2=N1 | 8.86 | 11.3 | 5.96 | 6.38 | -4.87 | 4.05 | -3.07 | 7.88 | -0.781 | -0.86 | – | – | – | – | – | – | – | – | – | –
18 | COc1cc(NC(=O)c2ccc(-c3ccc(Cl)cc3)o2)cc(OC)c1 | 18 | 8.82 | 3.08 | 6.97 | 15.3 | -0.703 | 3.14 | 21.1 | 9.84 | -9.78 | – | – | – | – | – | – | – | – | – | –
19 | Cn1cc(Cl)c2c(Oc3c(F)cc(Nc4cc(Cl)nc(N)n4)cc3F)ccnc21 | -1.23 | -1.29 | -9.66 | 4.86 | 27.1 | 40.4 | 11.7 | 64.2 | 53.4 | 2.57 | – | – | 8.46 | -2.36 | -7.79 | 17.9 | 1.46 | 2.73 | -4.8 | 48.5
